Bridge positions count the residues as written; N and C are the ends. Square brackets hold non-standard residues; d marks the D form. Peptide text beside a SMILES is read from it. * marks the point of attachment. ξ: configuration not given here. Phe(4-COOH) = N[C@@H](Cc1ccc(C(=O)O)cc1)C(=O)O; Bip = N[C@@H](Cc1ccc(-c2ccccc2)cc1)C(=O)O; Phe(3-Cl) = N[C@@H](Cc1cccc(Cl)c1)C(=O)O; Phe(4-CN) = N#Cc1ccc(C[C@H](N)C(=O)O)cc1; Phe(3-Me) = Cc1cccc(C[C@H](N)C(=O)O)c1; hTyr = N[C@@H](CCc1ccc(O)cc1)C(=O)O; Val(3-OH) = CC(C)(O)[C@H](N)C(=O)O; 4Pal = N[C@@H](Cc1ccncc1)C(=O)O; Cha = N[C@@H](CC1CCCCC1)C(=O)O; Cit = NC(=O)NCCC[C@H](N)C(=O)O; Ile(3ξ) = CCC(C)[C@H](N)C(=O)O; Thr(3ξ) = CC(O)[C@H](N)C(=O)O; Carboxymethyl = O=C(O)C*; NMeA = CN[C@@H](C)C(=O)O; Dab = NCC[C@H](N)C(=O)O
Molecular target: T1, PE-labeled human PD-L1-Ig binding to Jurkat cell line over-expressing human PD-1 (Jurkat-PD-1) (Homo sapiens, UniProt Q15116)
T1 construct: expressed in transfected cells; host or cells: Jurkat
T1 sequence (Q15116 25-288): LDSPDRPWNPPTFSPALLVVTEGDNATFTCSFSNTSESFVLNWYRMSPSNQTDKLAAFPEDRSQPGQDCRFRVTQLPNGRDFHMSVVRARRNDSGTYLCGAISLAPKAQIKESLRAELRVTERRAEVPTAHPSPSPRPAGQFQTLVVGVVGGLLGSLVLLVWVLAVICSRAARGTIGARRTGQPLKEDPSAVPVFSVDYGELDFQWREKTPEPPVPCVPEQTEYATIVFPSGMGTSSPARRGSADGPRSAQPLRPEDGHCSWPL
Test: Jurkat-PD-1 Cell Binding High-Content Screening Assay (CBA): Method 1
Settings: Jurkat-hPD-1 cells, PE-labeled PD-L1-Ig 20 nM final; read-out: Jurkat HPDL1 PD1 IC50 (uM) (Method 1)

Compared with Cc1cccc(C[C@@H]2NC(=O)[C@H](CC(=O)O)NC(=O)[C@H](Cc3ccc(OCC(=O)O)cc3)NC(=O)[C@H](Cc3ccncc3)NC(=O)CSC[C@@H](C(=O)N[C@@H](CCN)C(N)=O)NC(=O)[C@H](CCC(=O)O)NC(=O)[C@H](C(C)(C)O)NC(=O)[C@H](CC3CCCCC3)NC(=O)[C@H](CCN)NC(=O)[C@@H](CC(C)C)NC(=O)[C@H](C)N(C)C(=O)[C@H](Cc3ccc(OCC(=O)O)cc3)NC(=O)[C@H](Cc3ccc(-c4ccccc4)cc3)NC(=O)[C@H](Cc3ccc(C(=O)O)cc3)NC2=O)c1 [Compound 2189] ({CH2CO}-[4Pal]Y(Carboxymethyl)D[Phe(3-Me)][Phe(4-COOH)][Bip]Y(Carboxymethyl)[NMeA][dL][Dab][Cha][Val(3-OH)]EC[Dab]-NH2; thioether N-14), CC(C)C[C@@H]1NC(=O)[C@H](Cc2c[nH]c3ccccc23)NC(=O)[C@H](CC(=O)O)NC(=O)[C@H](Cc2ccncc2)NC(=O)[C@H](Cc2ccc(OCC(=O)O)cc2)NC(=O)CSC[C@@H](C(=O)N[C@@H](CC(N)=O)C(N)=O)NC(=O)[C@H]([C@@H](C)O)NC(=O)[C@H](C(C)C)NC(=O)[C@H](CC2CCCCC2)NC(=O)[C@H](CCN)NC(=O)[C@@H](CC(C)C)NC(=O)[C@H](C)N(C)C(=O)[C@H](C(C)C)NC(=O)[C@H](Cc2ccc(-c3ccccc3)cc2)NC1=O [Compound 1902] ({CH2CO}-Y(Carboxymethyl)[4Pal]DWL[Bip]V[NMeA][dL][Dab][Cha]VTCN-NH2; thioether N-14) is 3-fold lower in IC50: 0.03 µM for the first, 0.01 µM for the second. The second is the more potent here.

First: CC(C)C[C@@H]1NC(=O)[C@H](CCN)NC(=O)[C@@H](CC(C)C)NC(=O)[C@H](C)N(C)C(=O)[C@H](CCCNC(N)=O)NC(=O)[C@H](Cc2ccc(-c3ccccc3)cc2)NC(=O)[C@H](C(C)C)NC(=O)[C@H](Cc2c[nH]c3ccccc23)NC(=O)[C@H](CC(=O)O)NC(=O)[C@H](Cc2cccc(Cl)c2)NC(=O)[C@H](CC(N)=O)NC(=O)CSC[C@@H](C(=O)N[C@@H](C)C(N)=O)NC(=O)[C@H]([C@@H](C)O)NC(=O)[C@H](C(C)C)NC1=O [Compound 1310] ({CH2CO}-N[Phe(3-Cl)]DWV[Bip][Cit][NMeA][dL][Dab]LVTCA-NH2; thioether N-14)
Second: CC(C)C[C@@H]1NC(=O)[C@H](CCN)NC(=O)[C@@H](CC(C)C)NC(=O)[C@H](C)N(C)C(=O)[C@H](CCCNC(N)=O)NC(=O)[C@H](Cc2ccc(-c3ccccc3)cc2)NC(=O)[C@H](C(C)C)NC(=O)[C@H](Cc2c[nH]c3ccccc23)NC(=O)[C@H](CC(=O)O)NC(=O)[C@H](Cc2ccncc2)NC(=O)[C@H](CC(N)=O)NC(=O)CSC[C@@H](C(=O)N[C@@H](C)C(N)=O)NC(=O)[C@H]([C@@H](C)O)NC(=O)[C@H](C(C)C)NC1=O [Compound 1320] ({CH2CO}-N[4Pal]DWV[Bip][Cit][NMeA][dL][Dab]LVTCA-NH2; thioether N-14)
The IC50 of the first is 5.5-fold higher: 0.11 µM for the first, 0.02 µM for the second.

First: CC(C)C[C@@H]1NC(=O)[C@H](Cc2c[nH]c3ccccc23)NC(=O)[C@H](CC(=O)O)NC(=O)[C@H](Cc2ccc(OCC(=O)O)cc2)NC(=O)[C@H](Cc2cnc[nH]2)NC(=O)CSC[C@@H](C(=O)N[C@@H](C)C(N)=O)NC(=O)[C@H](CO)NC(=O)[C@H](C(C)C)NC(=O)[C@H](CC(C)C)NC(=O)[C@H](CC(N)=O)NC(=O)[C@@H](C)NC(=O)[C@H](C)N(C)C(=O)[C@H](C(C)C)NC(=O)[C@H](Cc2ccc(-c3ccccc3)cc2)NC1=O [Compound 1799] ({CH2CO}-HY(Carboxymethyl)DWL[Bip]V[NMeA][dA]NLVSCA-NH2; thioether N-14)
Second: CC(C)C[C@@H]1NC(=O)[C@H](Cc2c[nH]c3ccccc23)NC(=O)[C@H](CC(=O)O)NC(=O)[C@H](Cc2ccc(C#N)cc2)NC(=O)[C@H](Cc2ccccc2)NC(=O)CSC[C@@H](C(=O)N[C@@H](C)C(N)=O)NC(=O)[C@H](CO)NC(=O)[C@H](C(C)C)NC(=O)[C@H](CC(C)C)NC(=O)[C@H](CC(N)=O)NC(=O)[C@@H](C)NC(=O)[C@H](C)N(C)C(=O)[C@H](C(C)C)NC(=O)[C@H](Cc2ccc(-c3ccccc3)cc2)NC1=O [Compound 1726] ({CH2CO}-F[Phe(4-CN)]DWL[Bip]V[NMeA][dA]NLVSCA-NH2; thioether N-14)
The IC50 of the first is 18-fold higher: 0.18 µM for the first, 0.01 µM for the second.

CC(C)C[C@@H]1NC(=O)[C@H](CCCNC(=N)N)NC(=O)[C@@H](CC(C)C)NC(=O)[C@H](C)N(C)C(=O)[C@H](CCCNC(=N)N)NC(=O)[C@H](Cc2ccc(-c3ccccc3)cc2)NC(=O)[C@H](C(C)C)NC(=O)[C@H](Cc2c[nH]c3ccccc23)NC(=O)[C@H](CC(=O)O)NC(=O)[C@H](CCc2ccc(O)cc2)NC(=O)[C@H](Cc2ccccc2)NC(=O)CSC[C@@H](C(=O)N[C@@H](C)C(N)=O)NC(=O)[C@H]([C@@H](C)O)NC(=O)[C@H](C(C)C)NC1=O [Compound 1106] ({CH2CO}-F[hTyr]DWV[Bip]R[NMeA][dL]RLVTCA-NH2; thioether N-14) and CC(C)C[C@@H]1NC(=O)[C@H](CCN)NC(=O)[C@@H](CC(C)C)NC(=O)[C@H](C)N(C)C(=O)[C@H](CCCNC(=N)N)NC(=O)[C@H](Cc2ccc(-c3ccccc3)cc2)NC(=O)[C@H](C(C)C)NC(=O)[C@H](Cc2c[nH]c3ccccc23)NC(=O)[C@H](CC(=O)O)NC(=O)[C@H](Cc2ccc(O)cc2)NC(=O)[C@H](Cc2ccccc2)NC(=O)CSC[C@@H](C(=O)N[C@H](C)C(N)=O)NC(=O)[C@H]([C@@H](C)O)NC(=O)[C@H](C(C)C)NC1=O [Compound 1170] ({CH2CO}-FYDWV[Bip]R[NMeA][dL][Dab]LVTC[dA]-NH2; thioether N-14) are within 1.5-fold of each other in IC50: 0.07 µM for the first, 0.05 µM for the second.

Going from CCC(C)[C@@H]1NC(=O)[C@H](Cc2ccc(-c3ccccc3)cc2)NC(=O)[C@H](C(C)C)NC(=O)[C@H](Cc2c[nH]c3ccccc23)NC(=O)[C@H](CC(=O)O)NC(=O)[C@H](Cc2ccc(O)cc2)NC(=O)[C@H](CC(N)=O)NC(=O)CSC[C@@H](C(=O)N[C@@H](CC(=O)O)C(=O)N[C@@H](CCN)C(=O)O)NC(=O)[C@H](C(C)O)NC(=O)[C@H](C(C)C)NC(=O)[C@H](CC2CCCCC2)NC(=O)[C@H](CC(N)=O)NC(=O)[C@@H](CC(C)C)NC(=O)[C@H](C)N(C)C1=O (stereo partly drawn) [Compound 2002] ({CH2CO}-NYDWV[Bip][Ile(3ξ)][NMeA][dL]N[Cha]V[Thr(3ξ)]CD[Dab]-OH; thioether N-14) to CC(C)C[C@@H]1NC(=O)[C@H](Cc2c[nH]c3ccccc23)NC(=O)[C@H](CC(=O)O)NC(=O)[C@H](Cc2ccc(O)cc2)NC(=O)[C@H](Cc2ccccc2)NC(=O)CSC[C@@H](C(=O)N[C@@H](C)C(N)=O)NC(=O)[C@H]([C@@H](C)O)NC(=O)[C@H](C(C)C)NC(=O)[C@H](CC(C)C)NC(=O)[C@H](CCN)NC(=O)[C@@H](C)NC(=O)[C@H](C)N(C)C(=O)[C@H](C(C)C)NC(=O)[C@H](Cc2ccc(-c3ccccc3)cc2)NC1=O [Compound 1478] ({CH2CO}-FYDWL[Bip]V[NMeA][dA][Dab]LVTCA-NH2; thioether N-14), the IC50 falls from 0.14 µM to 0.02 µM (7-fold).

For Cc1cccc(C[C@@H]2NC(=O)[C@H](CC(=O)O)NC(=O)[C@H](Cc3ccc(O)cc3)NC(=O)[C@H](CC(N)=O)NC(=O)CSC[C@@H](C(=O)N[C@@H](C)C(N)=O)NC(=O)[C@H]([C@@H](C)O)NC(=O)[C@H](C(C)C)NC(=O)[C@H](CC(C)C)NC(=O)[C@H](CCN)NC(=O)[C@@H](CC(C)C)NC(=O)[C@H](C)N(C)C(=O)[C@H](Cc3cnc[nH]3)NC(=O)[C@H](Cc3ccc(-c4ccccc4)cc3)NC(=O)[C@H](C(C)C)NC2=O)c1 [Compound 1376] ({CH2CO}-NYD[Phe(3-Me)]V[Bip]H[NMeA][dL][Dab]LVTCA-NH2; thioether N-14), the IC50 was 0.02 µM.

Reference: US20240409585A1, “MACROCYCLIC IMMUNOMODULATORS” (priority 2021, published 2024)
